# Experimental data as given in PubChem BioAssay AID1963954.
# Calls of active or inactive are those of the source.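 How the source made its calls: active means IL-1b release lowered by over 30% against vehicle-treated cells of the same ATG16L1 genotype; inactive means the rest.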
# Test system: mouse BMDM IL-1b secretion, LPS+ATP, ELISA
# Assay: reduction of stimulated IL-1b secretion in BMDMs – cell-based, mouse BMDMs, ATG16L1 wt and T300A, LPS+ATP (AID 1963954)
# Conditions: at 40 µM, hits give low values
SMILES,"normalized IL-1b secretion (with LPS + ATP, ATG16L1 T300A)","normalized IL-1b secretion (with LPS + ATP, ATG16L1 wt)","normalized IL-1b secretion (unstimulated, ATG16L1 T300A)","normalized IL-1b secretion (unstimulated, ATG16L1 wt)"
CCC(C)(C)C(=O)C(=O)N1CCCC[C@H]1C(=O)N[C@H](CCc1ccc(OC)cc1)C(=O)N1[C@@H]2CC[C@H]1CC(Nc1nc(NCCc3sc(N)nc3C)nc(N3CCn4ncnc4C3)n1)C2 (stereo partly specified),0.39,0.37,,
CS(C)=O,1.39 (inactive),1 (inactive),0.05 (inactive),0 (inactive)
